Source: ChEMBL document CHEMBL3868634, “Animal models in the pharmacokinetic/pharmacodynamic evaluation of antimicrobial agents” (Bioorg Med Chem, 2016)

Test: Ratio of AUC in mouse epithelial lining fluid to AUC in mouse serum
Assay type: ADME
Settings: read-out: Ratio AUC

CC(C)(O/N=C(\C(=O)N[C@@H]1C(=O)N2C(C(=O)[O-])=C(C[n+]3ccccc3)CS[C@H]12)c1csc(N)n1)C(=O)O [CEFTAZIDIME]
Kp: 0.201
